Experimental data: patent US6737383B1, “Herbicidal oxadiazolidines” (priority 1999, dated 2004)

Key:
bedstraw = assay: Test B pre/postemergence bedstraw; type: in vivo, Galium aparine
Summary of the method: (§1)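 Test chemicals in a non-phytotoxic solvent mixture with surfactant were sprayed preemergence onto planted seeds and postemergence onto plants 2 to 18 cm tall (1- to 4-leaf stage). After twelve to sixteen days in a greenhouse, injury was visually rated against untreated controls from 0 (no effect) to 10 (complete control).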

blackgrass = assay: Test B pre/postemergence blackgrass; type: in vivo, Alopecurus myosuroides
Summary of the method: as §1

purple nutsedge = assay: Test B pre/postemergence purple nutsedge; type: in vivo, Cyperus rotundus
Summary of the method: as §1

cocklebur = assay: Test B pre/postemergence cocklebur; type: in vivo, Xanthium strumarium
Summary of the method: as §1

sugar beet = assay: Test B pre/postemergence sugar beet; type: in vivo, Beta vulgaris
Summary of the method: as §1

rice = assay: Test B flood test rice; type: in vivo, Oryza sativa
Summary of the method: (§2)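 Each value is a visual injury score relative to controls, with 10 meaning complete control and 0 no effect. Evaluation took place twelve to sixteen days after the 2-leaf-stage plants were treated and kept in the greenhouse.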

wild oat = assay: Test B pre/postemergence wild oat; type: in vivo, Avena fatua
Summary of the method: as §1

corn = assay: Test B pre/postemergence corn; type: in vivo, Zea mays
Summary of the method: as §1

crabgrass = assay: Test B pre/postemergence crabgrass; type: in vivo, Digitaria sanguinalis
Summary of the method: as §1

pigweed = assay: Test B pre/postemergence pigweed; type: in vivo, Amaranthus retroflexus
Summary of the method: as §1

bamyardgrass = assay: Test B flood test barnyardgrass; type: in vivo, Echinochloa crus-galli
Summary of the method: as §2

giant foxtail = assay: Test B pre/postemergence giant foxtail; type: in vivo, Setaria faberii
Summary of the method: as §1

smallflower flatsedge = assay: Test B flood test smallflower flatsedge; type: in vivo, Cyperus difformis
Summary of the method: as §2

surinam grass = assay: Test B pre/postemergence surinam grass; type: in vivo, Brachiaria decumbens
Summary of the method: as §1

soybean = assay: Test B pre/postemergence soybean; type: in vivo, Glycine max
Summary of the method: as §1

velvetleaf = assay: Test B pre/postemergence velvetleaf; type: in vivo, Abutilon theophrasti
Summary of the method: as §1

[1] = Preemergence, Rate 62 g/ha, scale of 0 to 10 where 0 is no effect and 10 is complete control
[2] = Preemergence, Rate 125 g/ha, 0 is no effect, 10 is complete control
[3] = Preemergence, Rate 250 g/ha, scale 0 to 10, 0 is no effect, 10 is complete control
[4] = Preemergence, Rate 500 g/ha, scale of 0 to 10 where 0 is no effect and 10 is complete control
[5] = Rate 62 g/ha, Postemergence, scale of 0 to 10 where 0 is no effect and 10 is complete control
[6] = Rate 125 g/ha, Postemergence, scale 0 to 10
[7] = Rate 500 g/ha, Postemergence, scale 0 to 10
[8] = Rate 62 g/ha, headed Pre-emergence (flood test species), scale 0 to 10 (0 no effect, 10 complete control)
[9] = Rate 125 g/ha, Pre-emergence, flood test species, scale 0 to 10 where 0 is no effect and 10 is complete control
[10] = Rate 250 g/ha, Pre-emergence, flood-test species, scale 0 to 10, 0 is no effect, 10 is complete control
[11] = Rate 500 g/ha, headed Pre-emergence (flood test species), scale 0 to 10 (0 no effect, 10 complete control)

Question: Which results are given for `CSc1ccc(N(C(=O)n2oc(=O)n(-c3ccccc3C)c2=O)C(C)C)cc1` [Compound 205]?
Answer: Bedstraw plant response rating (bedstraw; [1]): 0; Bedstraw plant response rating (0 to 10 scale) (bedstraw; [2]): 0; Bedstraw plant response rating (bedstraw; [3]): 0; Plant response rating, Bedstraw (bedstraw; [4]): 0; Bedstraw plant response rating (bedstraw; [5]): 0; Bedstraw plant response rating (bedstraw; [6]): 0; Plant response rating (0 to 10; 0 is no effect, 10 is complete control), Bedstraw (bedstraw; Rate 250 g/ha, Postemergence): 0; Bedstraw plant response rating (bedstraw; [7]): 0; Blackgrass plant response rating (blackgrass; [1]): 0; Blackgrass plant response rating (0 to 10 scale) (blackgrass; [2]): 0; Blackgrass plant response rating (blackgrass; [3]): 0; Plant response rating, Blackgrass (blackgrass; [4]): 0; Blackgrass plant response rating (blackgrass; [5]): 0; Blackgrass plant response rating (blackgrass; [6]): 0; Plant response rating (0 to 10; 0 is no effect, 10 is complete control), Blackgrass (blackgrass; Rate 250 g/ha, Postemergence): 0; Blackgrass plant response rating (blackgrass; [7]): 0; Nutsedge plant response rating (purple nutsedge; [3]): 0; Nutsedge plant response rating (purple nutsedge; [6]): 0; Nutsedge plant response rating (purple nutsedge; [7]): 0; Cocklebur plant response rating (cocklebur; [1]): 0; Cocklebur plant response rating (0 to 10 scale) (cocklebur; [2]): 0; Cocklebur plant response rating (cocklebur; [3]): 0; Plant response rating, Cocklebur (cocklebur; [4]): 0; Cocklebur plant response rating (cocklebur; [5]): 0; Cocklebur plant response rating (cocklebur; [6]): 1; Plant response rating (0 to 10; 0 is no effect, 10 is complete control), Cocklebur (cocklebur; Rate 250 g/ha, Postemergence): 1; Cocklebur plant response rating (cocklebur; [7]): 2; Sugarbeets plant response rating (sugar beet; [1]): 0; Sugarbeets plant response rating (0 to 10 scale) (sugar beet; [2]): 0; Sugarbeets plant response rating (sugar beet; [3]): 0; Plant response rating, Sugarbeets (sugar beet; [4]): 0; Sugarbeets plant response rating (sugar beet; [5]): 0; Sugarbeets plant response rating (sugar beet; [6]): 0; Plant response rating (0 to 10; 0 is no effect, 10 is complete control), Sugarbeets (sugar beet; Rate 250 g/ha, Postemergence): 0; Sugarbeets plant response rating (sugar beet; [7]): 0; Rice plant response rating (rice; [8]): 0; Rice plant response rating (rice; [9]): 0; Rice plant response rating (rice; [10]): 0; Plant response rating, Rice (rice; [11]): 0; Wild oats plant response rating (wild oat; [1]): 0; Wild oats plant response rating (wild oat; [3]): 0; Plant response rating, Wild oats (wild oat; [4]): 0; Wild oats plant response rating (wild oat; [5]): 0; Wild oats plant response rating (wild oat; [6]): 0; Plant response rating (0 to 10; 0 is no effect, 10 is complete control), Wild oats (wild oat; Rate 250 g/ha, Postemergence): 0; Corn plant response rating (corn; [1]): 0; Corn plant response rating (0 to 10 scale) (corn; [2]): 0; Corn plant response rating (corn; [3]): 0; Plant response rating, Corn (corn; [4]): 0; Corn plant response rating (corn; [5]): 0; Corn plant response rating (corn; [6]): 0; Plant response rating (0 to 10; 0 is no effect, 10 is complete control), Corn (corn; Rate 250 g/ha, Postemergence): 0; Corn plant response rating (corn; [7]): 0; Crabgrass plant response rating (crabgrass; [1]): 0; Crabgrass plant response rating (0 to 10 scale) (crabgrass; [2]): 0; Crabgrass plant response rating (crabgrass; [3]): 1; Plant response rating, Crabgrass (crabgrass; [4]): 8; Crabgrass plant response rating (crabgrass; [5]): 0; Crabgrass plant response rating (crabgrass; [6]): 0; Plant response rating (0 to 10; 0 is no effect, 10 is complete control), Crabgrass (crabgrass; Rate 250 g/ha, Postemergence): 1; Crabgrass plant response rating (crabgrass; [7]): 1; Redroot pigweed plant response rating (pigweed; [1]): 0; Redroot pigweed plant response rating (0 to 10 scale) (pigweed; [2]): 0; Redroot pigweed plant response rating (pigweed; [3]): 0; Plant response rating, Redroot pigweed (pigweed; [4]): 0; Redroot pigweed plant response rating (pigweed; [5]): 0; Redroot pigweed plant response rating (pigweed; [6]): 0; Plant response rating (0 to 10; 0 is no effect, 10 is complete control), Redroot pigweed (pigweed; Rate 250 g/ha, Postemergence): 0; Redroot pigweed plant response rating (pigweed; [7]): 0; Barnyardgrass plant response rating (bamyardgrass; [8]): 0; Barnyardgrass plant response rating (bamyardgrass; [9]): 0; Barnyardgrass plant response rating (bamyardgrass; [10]): 0; Plant response rating, Barnyardgrass (bamyardgrass; [11]): 0; Giant foxtail plant response rating (giant foxtail; [1]): 0; Giant foxtail plant response rating (0 to 10 scale) (giant foxtail; [2]): 0; Giant foxtail plant response rating (giant foxtail; [3]): 0; Plant response rating, Giant foxtail (giant foxtail; [4]): 3; Giant foxtail plant response rating (giant foxtail; [5]): 0; Giant foxtail plant response rating (giant foxtail; [6]): 0; Plant response rating (0 to 10; 0 is no effect, 10 is complete control), Giant foxtail (giant foxtail; Rate 250 g/ha, Postemergence): 0; Giant foxtail plant response rating (giant foxtail; [7]): 0; S. Flatsedge plant response rating (smallflower flatsedge; [8]): 0; S. Flatsedge plant response rating (smallflower flatsedge; [9]): 0; S. Flatsedge plant response rating (smallflower flatsedge; [10]): 0; S. Flatsedge plant response rating (smallflower flatsedge; Rate 500 g/ha, Pre-emergence, flood test species, scale 0 to 10 (0 no effect, 10 complete control)): 0; B. signalgrass plant response rating (surinam grass; [1]): 0; B. signalgrass plant response rating (0 to 10 scale) (surinam grass; [2]): 0; B. signalgrass plant response rating (surinam grass; [3]): 0; Plant response rating, B. signalgrass (surinam grass; [4]): 0; B. signalgrass plant response rating (surinam grass; [5]): 0; B. signalgrass plant response rating (surinam grass; Rate 125 g/ha, Postemergence, scale 0 (no effect) to 10 (complete control)): 0; Plant response rating, B. signalgrass (surinam grass; Rate 250 g/ha, Postemergence, scale 0 to 10, 0 is no effect, 10 is complete control): 0; B. signalgrass plant response rating (surinam grass; Rate 500 g/ha, Postemergence, scale 0 to 10, 0 no effect, 10 complete control): 0; Soybean plant response rating (soybean; [1]): 0; Soybean plant response rating (0 to 10 scale) (soybean; [2]): 0; Soybean plant response rating (soybean; [3]): 0; Plant response rating, Soybean (soybean; [4]): 0; Soybean plant response rating (soybean; [5]): 0; Soybean plant response rating (soybean; [6]): 1; Plant response rating (0 to 10; 0 is no effect, 10 is complete control), Soybean (soybean; Rate 250 g/ha, Postemergence): 2; Soybean plant response rating (soybean; [7]): 2; Velvetleaf plant response rating (velvetleaf; [1]): 0; Velvetleaf plant response rating (velvetleaf; [3]): 0; Plant response rating, Velvetleaf (velvetleaf; [4]): 0; Velvetleaf plant response rating (velvetleaf; [5]): 0; Velvetleaf plant response rating (velvetleaf; [6]): 0; Plant response rating (0 to 10; 0 is no effect, 10 is complete control), Velvetleaf (velvetleaf; Rate 250 g/ha, Postemergence): 0
